From patent US20200339691A1, “PROTEINACEOUS MOLECULES AND USES THEREFOR” (priority 2018, published 2020)
Where a SMILES comes first, the peptide text is derived from it. The star is where a group is joined. Myristoyl = CCCCCCCCCCCCCC(=O)*

Experiments:
[1] = test system: CD44^hiCD24^lo CSCs in MDA-MB-231 cells; assay: FACS analysis of CD44^hiCD24^lo cancer stem cells in MDA-MB-231 cells treated with P1 analogues; type: cell-based, human; details: 50 μM peptide, 48 hours; for CD44^hiCD24^lo CSCs (%) / COI, Live Single CD44^hiCD24^lo CSCs (Cell Count): n = 1; for Average Inhibition of CSCs (%) / CD44^hiCD24^lo CSCs (%) Repeat 1 / CD44^hiCD24^lo CSCs (%) Repeat 2 / CD44^hiCD24^lo CSCs (%) Repeat 3: n = 3
Experimental: Analogues of P1 (Table 6) were designed and synthesized in accordance with the procedure of Example 5. The ability of these analogues to inhibit cancer stem cells was determined using FACS analysis on MDA-MB-231 cells, which constitutively contain approximately 90% CD44^hiCD24^lo cancer stem cells, treated with the peptides.
(§1) Non-adherent cells were removed during the washing steps.

MDA-MB-231 cells = type: cell-based, human; details: 50 μM peptide, 48 hours, n = 1
Description: as §1
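Wherever COI, Live Single Cells (Cell Count) is given: live means Hoechst-negative events among single cells.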

| Structure (SMILES) | Inhibition of CSCs (%) Repeat 1 [1] [%] | Inhibition of CSCs (%) Repeat 2 [1] [%] | Inhibition of CSCs (%) Repeat 3 [1] [%] | CD44^hiCD24^lo CSCs (%) [1] [%] | COI, Live Single CD44^hiCD24^lo CSCs (Cell Count) [1] | Average Inhibition of CSCs (%) [1] [%] | CD44^hiCD24^lo CSCs (%) Repeat 1 [1] [%] | CD44^hiCD24^lo CSCs (%) Repeat 2 [1] [%] | CD44^hiCD24^lo CSCs (%) Repeat 3 [1] [%] | COI (Cell Count) (MDA-MB-231 cells) | COI, Live Single Cells (Cell Count) (MDA-MB-231 cells) | COI, Single (Cell Count) (MDA-MB-231 cells) | Total Cell Count (MDA-MB-231 cells) |
| --- | --- | --- | --- | --- | --- | --- | --- | --- | --- | --- | --- | --- | --- |
| CCCCCCCCCCCCCC(=O)N[C@@H](CC(C)C)C(=O)N[C@H](C(=O)N[C@@H](Cc1ccccc1)C(=O)N[C@H](C(=O)N[C@@H](Cc1ccccc1)C(=O)N[C@@H](CCCNC(=N)N)C(=O)N[C@@H](CC(C)C)C(=O)N[C@@H](CCCNC(=N)N)C(=O)N[C@@H](CCCCN)C(=O)NCC(=O)N[C@H](C(=O)N[C@@H](CCSC)C(=O)N[C@@H](CCSC)C(=O)N[C@@H](CC(=O)O)C(=O)N[C@H](C(=O)N[C@@H](CCCCN)C(=O)N[C@@H](CCCCN)C(N)=O)C(C)C)C(C)C)[C@@H](C)CC)[C@@H](C)O [Peptide 2853831, Myristoyl-LTFIFRLRKGVMMDVKK-NH2] (Myristoyl-LTFIFRLRKGVMMDVKK-NH2) | 79.77 | 84.29 | 89.06 | 11.83 | 11 | 84.37 | 18.13 | 14.09 | 9.82 | 377 | 93 | 280 | 10000 |
| CCCCCCCCCCCCCC(=O)N[C@@H](CC(C)C)C(=O)N[C@H](C(=O)N[C@@H](Cc1ccccc1)C(=O)N[C@H](C(=O)N[C@@H](Cc1c[nH]cn1)C(=O)N[C@@H](CCCNC(=N)N)C(=O)N[C@@H](CC(C)C)C(=O)N[C@@H](CCCNC(=N)N)C(=O)N[C@@H](CCCCN)C(=O)NCC(=O)N[C@@H](CCCNC(=N)N)C(=O)N[C@@H](CCSC)C(=O)N[C@@H](CCSC)C(=O)N[C@@H](CC(=O)O)C(=O)N[C@H](C(=O)N[C@@H](CCCCN)C(=O)N[C@@H](CCCCN)C(N)=O)C(C)C)[C@@H](C)CC)[C@@H](C)O [Peptide 2853815, Myristoyl-LTFIHRLRKGRMMDVKK-NH2] (Myristoyl-LTFIHRLRKGRMMDVKK-NH2) | 6.67 | 7.21 | 8.72 | 71.33 | 199 | 7.53 | 83.65 | 83.25 | 81.91 | 320 | 279 | 300 | 1114 |
| CCCCCCCCCCCCCC(=O)N[C@H](C(=O)N[C@@H](Cc1ccccc1)C(=O)N[C@H](C(=O)N[C@@H](Cc1ccccc1)C(=O)N[C@@H](CCCNC(=N)N)C(=O)N[C@@H](CC(C)C)C(=O)N[C@@H](CCCNC(=N)N)C(=O)N[C@@H](CCCCN)C(=O)NCC(=O)N[C@@H](CCCNC(=N)N)C(=O)N[C@@H](CCSC)C(=O)N[C@@H](CCSC)C(=O)N[C@@H](CC(=O)O)C(=O)N[C@H](C(=O)N[C@@H](C)C(=O)N[C@@H](CCCCN)C(N)=O)C(C)C)[C@@H](C)CC)[C@@H](C)O [Peptide 2815316, Myristoyl-TFIFRLRKGRMMDVAK-NH2] (Myristoyl-TFIFRLRKGRMMDVAK-NH2) | 40.88 | 45.01 | 45.00 | 50.00 | 2 | 43.63 | 52.99 | 49.33 | 49.35 | 22 | 4 | 20 | 10777 |
